Experimental data from patent US12258327B2, “5-membered heteroaryl-containing aminopyridine compounds as EGFR inhibitors” (YUHAN CORPORATION, priority 2021, dated 2025).
Read-outs that look alike come from different tables or passages of the source.

Key:
EGFR del19/T790M/C797S = EGFR del19/T790M/C797S (Homo sapiens, UniProt P00533, C797S/DEL746-750/T790M); experiment: Biochemical EGFR kinase assay (Lance Ultra TR-FRET), triple mutant del19/T790M/C797S
Description: (§1) Biochemical EGFR kinase assays were conducted using Lance Ultra time-resolved fluorescence resonance energy transfer (TR-FRET) technology from Perkin-Elmer. Compounds of the invention were initially diluted to 20 mM in 100% DMSO for storage and made into kinase buffer solution to create a compound concentration ranging from 0.003 μM and 10 μM.
(§2) Each kinase reactions were incubated at room temperature for 1 hour and then stopped by the addition of 4 μL of stop solution (10 mM EDTA). The specific Europium-labeled-anti-phosphopeptide antibody (PerkinElmer, AD0069) diluted in LANCE detection buffer was then added to a final concentration of 2 nM. After 60 minutes incubation at room temperature the LANCE signal was measured on an EnVision Multilabel Reader (Perkin-Elmer). Excitation wavelength was set at 320 nm and emission monitored at 615 nm (donor) and 665 nm (acceptor). The IC50 values were determined using GraphPad prism software (GraphPad Software, Inc., San Diego, CA, USA).

EGFR L858R/T790M/C797S = EGFR L858R/T790M/C797S (Homo sapiens, UniProt P00533, C797S/L858R/T790M); experiment: Biochemical EGFR kinase assay (Lance Ultra TR-FRET), triple mutant L858R/T790M/C797S
Description: as §1, §2

EGFR del19/C797S = EGFR del19/C797S (Homo sapiens, UniProt P00533, C797S/DEL746-750); experiment: Biochemical EGFR kinase assay (Lance Ultra TR-FRET), double mutant del19/C797S
Description: as §1, §2

EGFR L858R/C797S = EGFR L858R/C797S (Homo sapiens, UniProt P00533, C797S/L858R); experiment: Biochemical EGFR kinase assay (Lance Ultra TR-FRET), double mutant L858R/C797S
Description: as §1, §2

EGFR wildtype (WT) = EGFR wildtype (WT) (Homo sapiens, UniProt P00533); experiment: Biochemical EGFR kinase assay (Lance Ultra TR-FRET), wildtype
Description: as §1, §2

[1] = IC50 del19/T790M/C797S (nM) 100 μM ATP, 100 μM ATP
[2] = Km ATP, read-out: IC50 del19/T790M/C797S (nM) Km ATP
[3] = IC50 L858R/T790M/C797S (nM) 100 μM ATP, 100 μM ATP
[4] = Km ATP, read-out: IC50 L858R/T790M/C797S (nM) Km ATP
[5] = IC50 del19/C797S (nM) 100 μM ATP, 100 μM ATP
[6] = Km ATP, read-out: IC50 del19/C797S (nM) Km ATP
[7] = IC50 L858R/C797S (nM) 100 μM ATP, 100 μM ATP
[8] = Km ATP, read-out: IC50 L858R/C797S (nM) Km ATP
[9] = IC50 WT (nM) 100 μM ATP, 100 μM ATP
[10] = Km ATP, read-out: IC50 WT (nM) Km ATP
[11] = Km ATP, read-out: IC50 del19/T790M/C797S, Km ATP
[12] = Km ATP, read-out: IC50 L858R/T790M/C797S, Km ATP
[13] = Km ATP, read-out: IC50 del19/C797S, Km ATP
[14] = Km ATP, read-out: IC50 L858R/C797S, Km ATP
[15] = Km ATP, read-out: IC50 WT, Km ATP

Chain of EGFR L858R/C797S (P00533 25-1210 C797S/L858R): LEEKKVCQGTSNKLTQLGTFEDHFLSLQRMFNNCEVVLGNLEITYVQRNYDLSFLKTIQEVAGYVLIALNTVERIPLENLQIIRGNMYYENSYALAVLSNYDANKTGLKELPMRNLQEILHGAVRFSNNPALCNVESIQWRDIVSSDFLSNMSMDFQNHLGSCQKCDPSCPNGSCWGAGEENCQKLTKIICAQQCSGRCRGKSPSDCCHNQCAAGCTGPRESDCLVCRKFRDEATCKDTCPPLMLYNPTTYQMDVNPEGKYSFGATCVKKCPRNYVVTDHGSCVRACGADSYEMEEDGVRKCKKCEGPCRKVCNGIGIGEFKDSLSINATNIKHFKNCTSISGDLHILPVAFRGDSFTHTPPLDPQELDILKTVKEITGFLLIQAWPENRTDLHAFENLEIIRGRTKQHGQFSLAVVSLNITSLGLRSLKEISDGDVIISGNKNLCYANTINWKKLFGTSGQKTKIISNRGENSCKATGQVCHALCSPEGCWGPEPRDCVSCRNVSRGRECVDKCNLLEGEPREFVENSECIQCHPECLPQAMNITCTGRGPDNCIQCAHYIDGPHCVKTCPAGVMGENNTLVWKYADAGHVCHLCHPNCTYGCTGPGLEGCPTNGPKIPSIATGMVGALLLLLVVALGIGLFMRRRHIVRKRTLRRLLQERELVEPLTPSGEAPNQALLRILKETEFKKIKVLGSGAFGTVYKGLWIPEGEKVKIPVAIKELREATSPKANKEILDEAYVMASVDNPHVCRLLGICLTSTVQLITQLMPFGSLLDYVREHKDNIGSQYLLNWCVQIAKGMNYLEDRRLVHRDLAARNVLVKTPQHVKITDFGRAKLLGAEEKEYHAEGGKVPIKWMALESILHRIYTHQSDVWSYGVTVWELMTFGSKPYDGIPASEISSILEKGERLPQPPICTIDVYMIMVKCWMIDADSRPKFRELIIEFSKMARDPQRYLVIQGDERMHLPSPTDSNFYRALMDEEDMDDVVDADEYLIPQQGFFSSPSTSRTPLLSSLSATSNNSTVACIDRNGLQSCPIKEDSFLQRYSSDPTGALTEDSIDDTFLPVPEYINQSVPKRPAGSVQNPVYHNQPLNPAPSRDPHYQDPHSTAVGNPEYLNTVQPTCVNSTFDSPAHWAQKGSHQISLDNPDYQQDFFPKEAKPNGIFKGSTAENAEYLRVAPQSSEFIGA
Chain of EGFR del19/T790M/C797S (P00533 with tags, fused parts or gaps DEL746-750/T790M/C797S): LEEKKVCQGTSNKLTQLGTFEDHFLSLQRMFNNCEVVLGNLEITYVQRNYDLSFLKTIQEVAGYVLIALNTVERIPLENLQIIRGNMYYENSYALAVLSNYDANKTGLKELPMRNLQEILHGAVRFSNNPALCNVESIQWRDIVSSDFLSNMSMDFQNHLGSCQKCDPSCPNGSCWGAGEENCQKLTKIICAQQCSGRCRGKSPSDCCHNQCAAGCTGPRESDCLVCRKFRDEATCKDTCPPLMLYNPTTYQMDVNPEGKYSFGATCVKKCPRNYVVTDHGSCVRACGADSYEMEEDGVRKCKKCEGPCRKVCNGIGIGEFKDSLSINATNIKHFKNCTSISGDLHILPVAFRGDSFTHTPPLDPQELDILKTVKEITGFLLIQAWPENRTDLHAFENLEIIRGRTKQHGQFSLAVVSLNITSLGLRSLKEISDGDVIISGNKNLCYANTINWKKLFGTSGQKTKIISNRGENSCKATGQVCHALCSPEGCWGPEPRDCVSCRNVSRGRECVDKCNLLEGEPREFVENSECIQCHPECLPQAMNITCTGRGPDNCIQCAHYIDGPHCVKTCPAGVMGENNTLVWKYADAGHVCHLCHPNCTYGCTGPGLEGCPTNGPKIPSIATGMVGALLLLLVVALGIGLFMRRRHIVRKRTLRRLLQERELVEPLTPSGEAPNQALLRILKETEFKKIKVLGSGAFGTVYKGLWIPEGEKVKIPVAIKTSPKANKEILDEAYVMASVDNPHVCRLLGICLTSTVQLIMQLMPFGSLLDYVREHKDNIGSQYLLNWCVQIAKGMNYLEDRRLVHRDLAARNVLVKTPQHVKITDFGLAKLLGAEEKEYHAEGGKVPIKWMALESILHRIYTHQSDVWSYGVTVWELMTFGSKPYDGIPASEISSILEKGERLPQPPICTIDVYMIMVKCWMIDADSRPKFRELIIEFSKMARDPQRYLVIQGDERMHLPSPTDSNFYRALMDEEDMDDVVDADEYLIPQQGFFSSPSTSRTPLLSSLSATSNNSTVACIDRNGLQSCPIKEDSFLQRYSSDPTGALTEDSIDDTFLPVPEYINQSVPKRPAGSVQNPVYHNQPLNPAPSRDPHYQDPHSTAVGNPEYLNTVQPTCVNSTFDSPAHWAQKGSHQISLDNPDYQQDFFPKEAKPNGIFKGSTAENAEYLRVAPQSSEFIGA
Chain of EGFR del19/C797S (P00533 with tags, fused parts or gaps DEL746-750/C797S): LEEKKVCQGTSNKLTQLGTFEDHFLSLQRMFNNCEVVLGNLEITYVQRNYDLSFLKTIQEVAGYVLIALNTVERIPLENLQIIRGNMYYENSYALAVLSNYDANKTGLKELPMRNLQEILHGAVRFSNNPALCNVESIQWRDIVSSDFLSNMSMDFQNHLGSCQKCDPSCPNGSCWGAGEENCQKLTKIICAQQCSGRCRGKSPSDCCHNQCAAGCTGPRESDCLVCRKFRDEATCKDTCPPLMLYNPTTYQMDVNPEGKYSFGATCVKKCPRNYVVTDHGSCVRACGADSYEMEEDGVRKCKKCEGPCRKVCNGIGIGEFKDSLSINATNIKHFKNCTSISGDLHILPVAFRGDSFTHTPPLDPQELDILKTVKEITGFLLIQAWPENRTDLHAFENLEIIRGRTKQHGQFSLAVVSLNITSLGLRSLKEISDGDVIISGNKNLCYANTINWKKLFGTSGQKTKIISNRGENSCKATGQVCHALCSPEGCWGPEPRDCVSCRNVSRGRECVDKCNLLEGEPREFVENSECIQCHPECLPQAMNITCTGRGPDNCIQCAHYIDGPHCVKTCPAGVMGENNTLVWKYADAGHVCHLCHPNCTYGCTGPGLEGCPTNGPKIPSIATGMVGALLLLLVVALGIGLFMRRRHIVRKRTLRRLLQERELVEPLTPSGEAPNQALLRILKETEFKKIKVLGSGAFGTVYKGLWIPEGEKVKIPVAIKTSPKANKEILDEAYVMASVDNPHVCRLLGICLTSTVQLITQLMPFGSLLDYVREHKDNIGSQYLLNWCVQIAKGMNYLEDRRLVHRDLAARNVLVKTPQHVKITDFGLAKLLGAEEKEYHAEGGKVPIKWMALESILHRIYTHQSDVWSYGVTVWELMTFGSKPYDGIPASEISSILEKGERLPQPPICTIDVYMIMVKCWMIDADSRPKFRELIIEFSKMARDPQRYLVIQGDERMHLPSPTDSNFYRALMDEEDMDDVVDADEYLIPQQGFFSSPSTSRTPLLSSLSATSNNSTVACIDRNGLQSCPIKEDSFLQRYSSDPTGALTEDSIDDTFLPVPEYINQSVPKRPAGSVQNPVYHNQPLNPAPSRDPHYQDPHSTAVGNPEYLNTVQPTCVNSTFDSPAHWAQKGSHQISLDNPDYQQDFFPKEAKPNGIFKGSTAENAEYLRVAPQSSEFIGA
Chain of EGFR wildtype (WT) (P00533 25-1210): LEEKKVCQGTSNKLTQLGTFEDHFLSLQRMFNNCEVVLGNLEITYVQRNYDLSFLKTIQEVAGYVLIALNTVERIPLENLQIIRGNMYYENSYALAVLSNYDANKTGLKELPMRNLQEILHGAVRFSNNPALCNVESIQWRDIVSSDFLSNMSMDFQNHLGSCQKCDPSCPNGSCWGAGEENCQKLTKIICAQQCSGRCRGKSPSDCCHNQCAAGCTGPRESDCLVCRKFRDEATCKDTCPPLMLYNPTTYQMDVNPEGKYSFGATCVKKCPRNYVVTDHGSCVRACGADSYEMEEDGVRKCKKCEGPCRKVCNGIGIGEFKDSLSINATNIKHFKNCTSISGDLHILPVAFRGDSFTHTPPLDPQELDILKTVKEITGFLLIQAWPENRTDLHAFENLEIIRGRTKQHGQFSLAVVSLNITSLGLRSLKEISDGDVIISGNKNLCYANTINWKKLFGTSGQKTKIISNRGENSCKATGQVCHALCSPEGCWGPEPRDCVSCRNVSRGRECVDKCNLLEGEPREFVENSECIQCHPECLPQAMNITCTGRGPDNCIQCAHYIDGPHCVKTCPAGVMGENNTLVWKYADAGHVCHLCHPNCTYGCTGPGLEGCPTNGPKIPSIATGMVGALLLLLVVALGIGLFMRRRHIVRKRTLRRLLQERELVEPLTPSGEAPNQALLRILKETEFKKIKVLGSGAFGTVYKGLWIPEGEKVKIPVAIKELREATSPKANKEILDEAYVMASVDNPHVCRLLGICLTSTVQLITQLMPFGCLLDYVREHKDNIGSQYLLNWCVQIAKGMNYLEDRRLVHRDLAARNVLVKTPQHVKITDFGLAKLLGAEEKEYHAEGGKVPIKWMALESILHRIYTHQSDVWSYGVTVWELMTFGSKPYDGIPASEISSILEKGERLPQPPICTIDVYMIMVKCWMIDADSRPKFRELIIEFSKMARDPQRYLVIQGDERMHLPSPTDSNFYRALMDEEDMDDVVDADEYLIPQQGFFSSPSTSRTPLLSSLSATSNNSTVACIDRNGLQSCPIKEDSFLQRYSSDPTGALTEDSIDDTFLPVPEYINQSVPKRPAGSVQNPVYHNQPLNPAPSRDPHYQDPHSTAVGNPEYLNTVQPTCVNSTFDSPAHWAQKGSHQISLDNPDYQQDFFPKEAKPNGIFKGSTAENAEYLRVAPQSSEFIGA

IC50 (EGFR del19/T790M/C797S; [1]) | IC50 (EGFR del19/T790M/C797S; [2]) | IC50 (EGFR L858R/T790M/C797S; [3]) | IC50 (EGFR L858R/T790M/C797S; [4]) | IC50 (EGFR del19/C797S; [5]) | IC50 (EGFR del19/C797S; [6]) | IC50 (EGFR L858R/C797S; [7]) | IC50 (EGFR L858R/C797S; [8]) | IC50 (EGFR wildtype (WT); [9]) | IC50 (EGFR wildtype (WT); [10]) | IC50 (EGFR del19/T790M/C797S; [11]) | IC50 (EGFR L858R/T790M/C797S; [12]) | IC50 (EGFR del19/C797S; [13]) | IC50 (EGFR L858R/C797S; [14]) | IC50 (EGFR wildtype (WT); [15]) | SMILES | IC50 (EGFR del19/T790M/C797S; read-out: IC50 del19/T790M/C797S (nM) 100 μM ATP, 100 μM ATP) | IC50 (EGFR L858R/T790M/C797S; read-out: IC50 L858R/T790M/C797S (nM) 100 μM ATP, 100 μM ATP) | IC50 (EGFR del19/C797S; read-out: IC50 del19/C797S (nM) 100 μM ATP, 100 μM ATP) | IC50 (EGFR L858R/C797S; read-out: IC50 L858R/C797S (nM) 100 μM ATP, 100 μM ATP) | IC50 (EGFR wildtype (WT); read-out: IC50 WT (nM) 100 μM ATP, 100 μM ATP)
 |  |  |  |  |  |  |  |  |  | 0.5 nM | 0.9 nM | 9.5 nM | 16.7 nM | 140 nM | C[C@]1(O)CC[C@@H](Nc2nc(Nc3ccnc(-c4cnn(S(=O)(=O)C5CC5)c4)c3)ncc2-c2ccn(CC(F)(F)F)n2)CC1 [Example 360, (1s,4s)-4-((2-((2-(1-(Cyclopropylsulfonyl)-1H-pyrazol-4-yl)pyridin-4-yl)amino)-5-(1-(2,2,2-trifluoroethyl)-1H-pyrazol-3-yl)pyrimidin-4-yl)amino)-1-methylcyclohexan-1-ol] |  |  |  |  | 
 | 1.7 nM |  | 1.3 nM |  | 70.5 nM |  | 6.5 nM |  | 90.5 nM |  |  |  |  |  | CCC(C)Nc1cc(Nc2ccnc(-c3cnn(S(=O)(=O)C4CC4)c3)n2)ncc1-c1ccn(C(F)F)n1 (stereo not drawn) [Example 210, N^4-(sec-Butyl)-N^2-(2-(1-(cyclopropylsulfonyl)-1H-pyrazol-4-yl)pyrimidin-4-yl)-5-(1-(difluoromethyl)-1H-pyrazol-3-yl)pyridine-2,4-diamine] |  |  |  |  | 
 |  |  |  |  |  |  |  |  |  | 0.6 nM | 0.2 nM | 6.9 nM | 3.7 nM | 108 nM | C[C@]1(O)CC[C@@H](Nc2cc(Nc3ccnc(-c4cnn(S(=O)(=O)C5CC5)c4)n3)nnc2-c2ccn(C(F)F)n2)CC1 [Example 372, (1s,4s)-4-((6-((2-(1-(Cyclopropylsulfonyl)-1H-pyrazol-4-yl)pyrimidin-4-yl)amino)-3-(1-(difluoromethyl)-1H-pyrazol-3-yl)pyridazin-4-yl)amino)-1-methylcyclohexan-1-ol] |  |  |  |  | 
0.3 nM | 0.5 nM | 0.4 nM | 0.3 nM | 1 nM | 0.6 nM | 14.2 nM | 0.6 nM | 4690 nM | 4.9 nM |  |  |  |  |  | CN(C)CCCn1ccc(-c2cnc(Nc3ccnc(-c4cnn(S(=O)(=O)C5CC5)c4)n3)cc2NCC2(CO)COC2)n1 [Example 279, (3-(((2-((2-(1-(Cyclopropylsulfonyl)-1H-pyrazol-4-yl)pyrimidin-4-yl)amino)-5-(1-(3-(dimethylamino)propyl)-1H-pyrazol-3-yl)pyridin-4-yl)amino)methyl)oxetan-3-yl)methanol] |  |  |  |  | 
9.9 nM | 0.3 nM | 11.5 nM | 2.6 nM | 237 nM | 15.5 nM | 32.5 nM | 6.3 nM | > 10000 nM | 54.5 nM |  |  |  |  |  | Cn1nc(-c2cnc(Nc3ccnc(-c4cnn(S(=O)(=O)C5CC5)c4)n3)cc2N[C@H]2CC[C@H](CCO)CC2)cc1C(F)(F)F [Example 263, 2-((1r,4r)-4-((2-((2-(1-(Cyclopropylsulfonyl)-1H-pyrazol-4-yl)pyrimidin-4-yl)amino)-5-(1-methyl-5-(trifluoromethyl)-1H-pyrazol-3-yl)pyridin-4-yl)amino)cyclohexyl)ethan-1-ol] |  |  |  |  | 

Further lines, the compound ahead of its results:

SMILES | IC50 (EGFR del19/T790M/C797S; [1]) | IC50 (EGFR del19/T790M/C797S; [2]) | IC50 (EGFR L858R/T790M/C797S; [3]) | IC50 (EGFR L858R/T790M/C797S; [4]) | IC50 (EGFR del19/C797S; [5]) | IC50 (EGFR del19/C797S; [6]) | IC50 (EGFR L858R/C797S; [7]) | IC50 (EGFR L858R/C797S; [8]) | IC50 (EGFR wildtype (WT); [9]) | IC50 (EGFR wildtype (WT); [10]) | IC50 (EGFR del19/T790M/C797S; [11]) | IC50 (EGFR L858R/T790M/C797S; [12]) | IC50 (EGFR del19/C797S; [13]) | IC50 (EGFR L858R/C797S; [14]) | IC50 (EGFR wildtype (WT); [15]) | IC50 (EGFR del19/T790M/C797S; read-out: IC50 del19/T790M/C797S (nM) 100 μM ATP, 100 μM ATP) | IC50 (EGFR L858R/T790M/C797S; read-out: IC50 L858R/T790M/C797S (nM) 100 μM ATP, 100 μM ATP) | IC50 (EGFR del19/C797S; read-out: IC50 del19/C797S (nM) 100 μM ATP, 100 μM ATP) | IC50 (EGFR L858R/C797S; read-out: IC50 L858R/C797S (nM) 100 μM ATP, 100 μM ATP) | IC50 (EGFR wildtype (WT); read-out: IC50 WT (nM) 100 μM ATP, 100 μM ATP)
Cn1ccc(-c2cnc(Nc3ccnc(-c4cnn(S(=O)(=O)C5CC5)c4)n3)cc2N[C@H]2CC[C@@H](N(C)C)CC2)n1 [Example 124, N^2-(2-(1-(Cyclopropylsulfonyl)-1H-pyrazol-4-yl)pyrimidin-4-yl)-N^4-((1s,4s)-4-(dimethylamino)cyclohexyl)-5-(1-methyl-1H-pyrazol-3-yl)pyridine-2,4-diamine] | 0.2 nM | 0.1 nM | 0.1 nM | 0.1 nM | 0.6 nM | 0.4 nM | 9.6 nM | 0.5 nM | 801 nM | 1.1 nM |  |  |  |  |  |  |  |  |  | 
Cc1cnn(-c2cnc(Nc3ccnc(-c4cnn(S(=O)(=O)C5CC5)c4)n3)cc2N[C@H]2CC[C@@](C)(O)CC2)c1 [Example 184, (1s,4s)-4-((2-((2-(1-(Cyclopropylsulfonyl)-1H-pyrazol-4-yl)pyrimidin-4-yl)amino)-5-(4-methyl-1H-pyrazol-1-yl)pyridin-4-yl)amino)-1-methylcyclohexan-1-ol] |  | 0.1 nM |  | 0.05 nM |  | 4.8 nM |  | 2 nM |  | 32 nM |  |  |  |  |  |  |  |  |  | 
Cc1ncc(-c2cnc(Nc3ccnc(-c4cnn(S(=O)(=O)C5CC5)c4)n3)cc2N2CCC(O)CC2)s1 [Example 89, 1-(2-((2-(1-Cyclopropylsulfonylpyrazol-4-yl)pyrimidin-4-yl)amino)-5-(2-methylthiazol-5-yl)-4-pyridyl)piperidin-4-ol] | 1.3 nM |  | 3.8 nM |  | 82.5 nM |  | 232 nM |  | > 10000 nM |  |  |  |  |  |  |  |  |  |  | 
O=S(=O)(C1CC1)n1cc(-c2nccc(Nc3cc(N[C@H]4CC[C@H](O)C4)c(-c4ccn(C(F)F)n4)cn3)n2)cn1 [Example 20, (1S,3S)-3-((2-((2-(1-(Cyclopropylsulfonyl)-1H-pyrazol-4-yl)pyrimidin-4-yl)amino)-5-(1-(difluoromethyl)-1H-pyrazol-3-yl)pyridin-4-yl)amino)cyclopentan-1-ol] | 0.9 nM | 0.3 nM |  | 0.2 nM | 3.4 nM | 1 nM | 51.9 nM | 3.1 nM | > 10000 nM | 21.1 nM |  |  |  |  |  |  |  |  |  | 
CN(CC(F)F)C[C@H]1CC[C@@H](Nc2cc(Nc3ccnc(-c4cnn(S(=O)(=O)C5CC5)c4)n3)ncc2-c2ccn(C(F)F)n2)CC1 [Example 206, N^2-(2-(1-(Cyclopropylsulfonyl)-1H-pyrazol-4-yl)pyrimidin-4-yl)-N^4-((1s,4s)-4-(((2,2-difluoroethyl)(methyl)amino)methyl)cyclohexyl)-5-(1-(difluoromethyl)-1H-pyrazol-3-yl)pyridine-2,4-diamine] | 22.1 nM |  | 13.8 nM |  | 26.9 nM |  | 206 nM |  | > 10000 nM |  |  |  |  |  |  |  |  |  |  | 
CN[C@H]1CC[C@@H](Nc2cc(Nc3ccnc(-c4cnn(S(=O)(=O)C5CC5)c4)n3)ncc2-c2ccn(C)n2)CC1 [Example 88, N^2-(2-(1-(Cyclopropylsulfonyl)-1H-pyrazol-4-yl)pyrimidin-4-yl)-5-(1-methyl-1H-pyrazol-3-yl)-N^4-((1s,4s)-4-(methylamino)cyclohexyl)pyridine-2,4-diamine] |  | 0.2 nM |  | 0.1 nM |  | 0.5 nM |  | 0.3 nM |  | 3.2 nM |  |  |  |  |  | 0.3 nM | 0.3 nM | 1 nM | 3.1 nM | 1980 nM
O=S(=O)(C1CC1)n1cc(-c2nccc(Nc3cc(NCC4CC5(CNC5)C4)c(-c4ccn(C(F)F)n4)cn3)n2)cn1 [Example 26, N^4-((2-Azaspiro[3.3]heptan-6-yl)methyl)-N^2-(2-(1-(cyclopropylsulfonyl)-1H-pyrazol-4-yl)pyrimidin-4-yl)-5-(1-(difluoromethyl)-1H-pyrazol-3-yl)pyridine-2,4-diamine] | 0.2 nM | 0.1 nM | 0.3 nM | 0.1 nM | 1.8 nM | 1.3 nM | 26.5 nM | 2.3 nM | 3740 nM | 6.7 nM |  |  |  |  |  |  |  |  |  | 
CCOC(=O)c1ccn(-c2cnc(Nc3ccnc(-c4cnn(S(=O)(=O)C5CC5)c4)n3)cc2N[C@H]2CC[C@@](C)(O)CC2)n1 [Example 102, Ethyl 1-(6-((2-(1-(cyclopropylsulfonyl)-1H-pyrazol-4-yl)pyrimidin-4-yl)amino)-4-(((1s,4s)-4-hydroxy-4-methylcyclohexyl)amino)pyridin-3-yl)-1H-pyrazole-3-carboxylate] | 0.4 nM | 0.5 nM | 0.6 nM | 0.3 nM | 10.6 nM | 6.3 nM | 123 nM | 4.4 nM | > 10000 nM | 183 nM |  |  |  |  |  |  |  |  |  | 
